Results: the NIST ThermoML archive (doi:10.1016/j.jct.2016.03.026)
Where “and” joins values, the source holds several entries; their conditions need not be identical. Identical values can stand only once.

Test: xn = mol fraction of the nth substance listed
Conditions: Fluid (supercritical or subcritical phases); for speed of sound: Frequency=5 MHz, Pulse-echo method, x1 = 0.925; for mass density: 263.15 K, Vibrating tube method, x1 = 0.97

O=C=O [carbon dioxide] + CO
speed of sound
Conditions | 263.13 K | 263.14 K
7970 kPa | 694.6 m/s and 693.1 m/s | 694.8 m/s and 695.2 m/s
9960 kPa | – | 715.4 m/s
9990 kPa | 715.1 m/s | –
10000 kPa | 714.3 m/s | –
10020 kPa | – | 715.9 m/s
14940 kPa | 760.5 m/s | –
14950 kPa | – | 760.8 m/s
14960 kPa | 759.3 m/s | –
14990 kPa | – | 761 m/s
19990 kPa | 799.6 m/s | 801 m/s
20000 kPa | 800.7 m/s | –
20020 kPa | – | 800.7 m/s
24970 kPa | 836 m/s | 836.4 m/s
24980 kPa | 835.1 m/s | –
24990 kPa | – | 836.3 m/s
29960 kPa | 867.4 m/s | 868.8 m/s
29990 kPa | 868.4 m/s | –
30000 kPa | – | 868.9 m/s
34950 kPa | – | 898.5 m/s
34980 kPa | – | 898.5 m/s
34990 kPa | 898.5 m/s | –
35000 kPa | 897.7 m/s | –
39950 kPa | 926.1 m/s | –
39970 kPa | 925.5 m/s | –
39990 kPa | – | 926.5 m/s and 926.8 m/s
44970 kPa | 952.1 m/s | –
44980 kPa | 951.6 m/s | –
45030 kPa | – | 952.7 m/s
45040 kPa | – | 952.8 m/s
49950 kPa | – | 977.1 m/s
49960 kPa | – | 977.1 m/s
49970 kPa | 977 m/s and 976.2 m/s | –
54950 kPa | 999.5 m/s | –
54980 kPa | – | 1000.5 m/s
54990 kPa | 1000.3 m/s | –
55010 kPa | – | 1000.5 m/s
59950 kPa | 1021.6 m/s | 1022.5 m/s
59970 kPa | – | 1022.9 m/s
59990 kPa | 1022.6 m/s | –
64970 kPa | – | 1043.9 m/s and 1044.2 m/s
64980 kPa | 1043.7 m/s | –
65000 kPa | 1043 m/s | –
69950 kPa | – | 1064.3 m/s
69960 kPa | 1063.9 m/s | –
69990 kPa | – | 1064.1 m/s
70000 kPa | 1063.4 m/s | –
74960 kPa | 1083.5 m/s and 1082.7 m/s | –
74970 kPa | – | 1083.7 m/s
74990 kPa | – | 1084.1 m/s
79980 kPa | 1101.6 m/s | –
79990 kPa | – | 1102.8 m/s
80000 kPa | 1102.6 m/s | 1102.8 m/s
89950 kPa | – | 1138.4 m/s
89990 kPa | 1137.3 m/s | –
90000 kPa | 1138.2 m/s | –
90020 kPa | – | 1138.8 m/s
99980 kPa | – | 1172.1 m/s
99990 kPa | 1171.5 m/s | –
100000 kPa | 1170.8 m/s | 1171.8 m/s
109970 kPa | 1202.4 m/s | –
109980 kPa | 1203.2 m/s | 1203.3 m/s
110000 kPa | – | 1203.8 m/s
119950 kPa | 1232.3 m/s | –
119980 kPa | 1233.2 m/s | 1233.5 m/s
120000 kPa | – | 1233.4 m/s
129980 kPa | 1261.7 m/s | –
129990 kPa | 1260.9 m/s | –
130000 kPa | – | 1262 m/s
130010 kPa | – | 1262.1 m/s
139970 kPa | 1288.8 m/s | –
139980 kPa | 1288.1 m/s | 1289.1 m/s
140010 kPa | – | 1289.5 m/s
149950 kPa | 1315 m/s | 1315.1 m/s
149970 kPa | 1314.1 m/s | –
150000 kPa | – | 1315.4 m/s
159950 kPa | – | 1340.4 m/s
159960 kPa | – | 1340.2 m/s
159970 kPa | 1340 m/s | –
159980 kPa | 1339.2 m/s | –
169960 kPa | – | 1364.5 m/s
169980 kPa | – | 1364.2 m/s
170010 kPa | 1364.1 m/s | –
170040 kPa | 1363.4 m/s | –
179970 kPa | – | 1388 m/s
179990 kPa | – | 1387.5 m/s
180000 kPa | 1386.5 m/s | –
180020 kPa | 1387.5 m/s | –
190000 kPa | 1409.9 m/s | 1410.3 m/s
190010 kPa | 1409 m/s | –
190020 kPa | – | 1409.9 m/s

Conditions | mass density [kg/m3]
4000 kPa | 989.7
4025 kPa | 990.23
4050 kPa | 990.17
4075 kPa | 990.12
4100 kPa | 990.09
4125 kPa | 990.27
4150 kPa | 990.42
4175 kPa | 990.57
4200 kPa | 990.66
4225 kPa | 990.83
4250 kPa | 990.91
4275 kPa | 991.06
4300 kPa | 991.18
4325 kPa | 991.32
4350 kPa | 991.48
4375 kPa | 991.65
4400 kPa | 991.73
4425 kPa | 991.89
4450 kPa | 992.03
4475 kPa | 992.14
4500 kPa | 992.26
4525 kPa | 992.39
4550 kPa | 992.55
4575 kPa | 992.63
4600 kPa | 992.8
4625 kPa | 992.88
4650 kPa | 993.04
4675 kPa | 993.21
4700 kPa | 993.29
4725 kPa | 993.45
4750 kPa | 993.53
4775 kPa | 993.7
4800 kPa | 993.78
4825 kPa | 993.94
4850 kPa | 994.11
4875 kPa | 994.19
4900 kPa | 994.35
4925 kPa | 994.43
4950 kPa | 994.6
4975 kPa | 994.76
5000 kPa | 994.84
5025 kPa | 995.01
5050 kPa | 995.09
5075 kPa | 995.25
5100 kPa | 995.34
5125 kPa | 995.5
5150 kPa | 995.58
5175 kPa | 995.74
5200 kPa | 995.91
5225 kPa | 995.99
5250 kPa | 996.15
5275 kPa | 996.24
5300 kPa | 996.4
5325 kPa | 996.48
5350 kPa | 996.65
5375 kPa | 996.73
5400 kPa | 996.89
5425 kPa | 996.97
5450 kPa | 997.14
5475 kPa | 997.22
5500 kPa | 997.38
5525 kPa | 997.46
5550 kPa | 997.63
5575 kPa | 997.71
5600 kPa | 997.87
5625 kPa | 997.96
5650 kPa | 998.12
5675 kPa | 998.2
5700 kPa | 998.37
5725 kPa | 998.52
5750 kPa | 998.61
5775 kPa | 998.69
5800 kPa | 998.86
5825 kPa | 998.94
5850 kPa | 999.1
5875 kPa | 999.18
5900 kPa | 999.35
5925 kPa | 999.43
5950 kPa | 999.59
5975 kPa | 999.68
6000 kPa | 999.84
6025 kPa | 999.92
6050 kPa | 1000.09
6075 kPa | 1000.17
6100 kPa | 1000.33
6125 kPa | 1000.41
6150 kPa | 1000.58
6175 kPa | 1000.66
6200 kPa | 1000.79
6225 kPa | 1000.9
6250 kPa | 1000.98
6275 kPa | 1001.15
6300 kPa | 1001.23
6325 kPa | 1001.39
6350 kPa | 1001.48
6375 kPa | 1001.64
6400 kPa | 1001.72
6425 kPa | 1001.82
6450 kPa | 1001.97
6475 kPa | 1002.05
6500 kPa | 1002.21
6525 kPa | 1002.29
6550 kPa | 1002.46
6575 kPa | 1002.54
6600 kPa | 1002.7
6625 kPa | 1002.79
6650 kPa | 1002.95
6675 kPa | 1003.03
6700 kPa | 1003.2
6725 kPa | 1003.28
6750 kPa | 1003.36
6775 kPa | 1003.52
6800 kPa | 1003.6
6825 kPa | 1003.77
6850 kPa | 1003.85
6875 kPa | 1004.01
6900 kPa | 1004.09
6925 kPa | 1004.25
6950 kPa | 1004.34
6975 kPa | 1004.42
7000 kPa | 1004.59
7025 kPa | 1004.67
7050 kPa | 1004.82
7075 kPa | 1004.91
7100 kPa | 1004.99
7125 kPa | 1005.16
7150 kPa | 1005.24
7175 kPa | 1005.38
7200 kPa | 1005.49
7225 kPa | 1005.57
7250 kPa | 1005.73
7275 kPa | 1005.81
7300 kPa | 1005.9
7325 kPa | 1006.06
7350 kPa | 1006.14
7375 kPa | 1006.29
7400 kPa | 1006.39
7425 kPa | 1006.47
7450 kPa | 1006.63
7475 kPa | 1006.71
7500 kPa | 1006.79
